Patent US5863946A, “Iminoxyderivatives of fenamates as inhibitors of prostaglandin biosynthesis” (Abbott Laboratories, priority 1996, dated 1999)
pIC50: −log10 of the molar value.

Columns and labels:
[1] = tested on: prostaglandin endoperoxide H synthase 1 (PGHS-1); conditions: reported in literature; cited from earlier work
[2] = tested on: prostaglandin endoperoxide H synthase 2 (PGHS-2); conditions: reported in literature; cited from earlier work
recombinant human PGHS-1 = molecular target: T1, recombinant human PGHS-1 (Homo sapiens, UniProt P23219); test: Inhibition of PGE2 production by recombinant human PGHS-1 (microsomes, baculovirus/Sf9; EIA); format: biochemical; conditions: human recombinant PGHS-1; 60 min preincubation; 10 μM arachidonic acid, 2.5 min
T1 construct: made in house; host or cells: baculovirus/Sf9 insect cells (microsomes)
T1 sequence (P23219 24-599): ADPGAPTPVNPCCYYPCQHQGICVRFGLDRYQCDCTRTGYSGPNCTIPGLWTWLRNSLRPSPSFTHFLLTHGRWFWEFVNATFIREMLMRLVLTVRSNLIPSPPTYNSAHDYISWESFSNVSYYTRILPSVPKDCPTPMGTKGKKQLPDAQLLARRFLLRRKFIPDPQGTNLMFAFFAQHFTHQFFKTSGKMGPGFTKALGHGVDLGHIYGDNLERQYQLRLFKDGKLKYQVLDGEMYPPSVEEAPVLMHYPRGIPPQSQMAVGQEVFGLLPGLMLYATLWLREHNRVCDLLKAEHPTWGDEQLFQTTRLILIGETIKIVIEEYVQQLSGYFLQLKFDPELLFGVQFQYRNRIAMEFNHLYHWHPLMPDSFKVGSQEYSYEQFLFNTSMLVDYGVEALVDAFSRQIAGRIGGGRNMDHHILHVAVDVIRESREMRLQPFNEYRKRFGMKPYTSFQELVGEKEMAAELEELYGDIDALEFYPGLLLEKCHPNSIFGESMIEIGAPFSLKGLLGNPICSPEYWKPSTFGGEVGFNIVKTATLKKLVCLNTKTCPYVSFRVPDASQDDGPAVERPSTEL
Experimental: (§1) Inhibition of prostaglandin biosynthesis was evaluated in recombinant human PGHS-1 and PGHS-2 enzyme assays. Representative compounds dissolved in DMSO (3.3% v/v) were preincubated with microsomes from recombinant human PGHS-1 or PGHS-2 expressed in the baculovirus/Sf9 cell system (Gierse, J. K., Hauser, […]., and Seibert, K. […] The reaction was allowed to run for 2.5 minutes at room temperature prior to quenching with HCl and neutralization with NaOH. PGE2 production in the presence and absence of the drug was determined by EIA analysis. The EIA was conducted in 96 well microtiter plates (Nunc Roskilde, Denmark) and optical density measured using a microplate reader (Vmax, Molecular Devices Corp., Menlo Park, Calif.). EIA reagents for prostaglandin determination were purchased from Perseptive Diagnostics, Cambridge, Mass. PGE2 levels were measured against standards prepared in the same milieu. The immunoassays were conducted as recommended by the manufacturer.

recombinant human PGHS-2 = test: Inhibition of PGE2 production by recombinant human PGHS-2 (microsomes, baculovirus/Sf9; EIA); format: biochemical; conditions: human recombinant PGHS-2, 60 min preincubation, 10 μM arachidonic acid, 2.5 min
Experimental: as §1

Row | SMILES | inhibition of PGHS-1 [1] | inhibition of PGHS-2 [2] | pIC50 (recombinant human PGHS-1) | PGHS-2 % Inhibition (recombinant human PGHS-2; @ 0.1 μM) | PGHS-2 % Inhibition (recombinant human PGHS-2; @ 1.0 μM)
1 | Cc1ccc(Cl)c(Nc2ccccc2C(=O)O)c1Cl [Meclofenamic acid] | inhibit both PGHS-1 and PGHS-2 | inhibit both PGHS-1 and PGHS-2 | – | – | –
2 | CC(C)Cc1ccc(C(C)C(=O)O)cc1 (stereo not shown) [ibuprofen] | inhibit both isozymes | inhibit both isozymes | – | – | –
3 | Cc1ccc(Cl)c(Nc2ccccc2CON=CC(=O)O)c1Cl [Example 1, glyoxylic acid-O-[2-(2,6-dichloro-3-methylphenylamino)phenylmethyl] oxime] | – | – | 5.22 | 68% | –
4 | COc1ccc2cc([C@H](C)C(=O)O)ccc2c1 [naproxen] | inhibit both isozymes | inhibit both isozymes | – | – | –
5 | CC(=NOCc1ccccc1Nc1c(Cl)ccc(C)c1Cl)C(=O)O [Example 2, pyruvic acid-O-[2-[(2,6-dichloro-3-methylphenyl)amino]phenylmethyl] oxime] | – | – | 4.21 | – | 28%
